Assay results reported in PubChem BioAssay AID1259407 (Chemical Carcinogenesis Research Information System (CCRIS), 2018).
Calls of active or inactive are those of the source. No rule for the calls is given here.

System: CCRIS mutagenicity, Ames/micronucleus/aberration tests
Assay: CCRIS mutagenicity studies
Conditions: Test System: AMES SALMONELLA TYPHIMURIUM, Method: PREINCUBATION

Measured: mutagenic call

CC(=O)Nc1ccc(C)cc1
inactive: Strain/Indicator: TA97, Metabolic Activation: HAMSTER, LIVER, S-9, AROCLOR 1254 (10 OR 30%) inactive; negative | Strain/Indicator: TA97, Metabolic Activation: NONE inactive; negative | Strain/Indicator: TA97, Metabolic Activation: RAT, LIVER, S-9, AROCLOR 1254 (10 OR 30%) inactive; negative | Strain/Indicator: TA98, Metabolic Activation: HAMSTER, LIVER, S-9, AROCLOR 1254 (10 OR 30%) inactive; negative | Strain/Indicator: TA98, Metabolic Activation: NONE inactive; negative | Strain/Indicator: TA98, Metabolic Activation: RAT, LIVER, S-9, AROCLOR 1254 (10 OR 30%) inactive; negative | Strain/Indicator: TA100, Metabolic Activation: HAMSTER, LIVER, S-9, AROCLOR 1254 (10%) inactive; negative | Strain/Indicator: TA100, Metabolic Activation: HAMSTER, LIVER, S-9, AROCLOR 1254 (30%) inactive; negative | Strain/Indicator: TA100, Metabolic Activation: NONE inactive; negative | Strain/Indicator: TA100, Metabolic Activation: RAT, LIVER, S-9, AROCLOR 1254 (10 OR 30%) inactive; negative | Strain/Indicator: TA1535, Metabolic Activation: HAMSTER, LIVER, S-9, AROCLOR 1254 (10 OR 30%) inactive; negative | Strain/Indicator: TA1535, Metabolic Activation: NONE inactive; negative | Strain/Indicator: TA1535, Metabolic Activation: RAT, LIVER, S-9, AROCLOR 1254 (10 OR 30%) inactive; negative
